# Key:
# dengue virus = dengue virus infectivity; cited from earlier work
# [1] = system: wild-type (WT) strain of Measles Virus (MV); assay: Antiviral activity against a wild-type strain of Measles Virus; format: cell-based
# Method: The antiviral activity of a cholesterol-derivatized inhibitors derived from the sequence of Human Parainfluenza virus type 3 (HPIV3) was tested against a wild-type (WT) strain of Measles Virus (MV).
Substance,antiviral activity (dengue virus),fold more potent than the underivatized peptide [1] [fold]
AWDFGSLGGVFTSIGKALHQVF (Dengue virus 2 (DV2)) [DV2^419-440],very weak antiviral activity,
Ac-VALDPIDISIVLNKAKSDLEESKEWIRRSNGKLDSIGSGSG-C(PEG4-Chol) (Ac-VALDPIDISIVLNKAKSDLEESKEWIRRSNGKLDSIGSGSG-{C(PEG4-cholesterol)}),,5
[(Ac-VALDPIDISIVLNKAKSDLEESKEWIRRSNGKLDSIGSGSG-C(Mal-PEG4)]2-Chol,,250
